Measurements as given in article PMC4837544, “Differential kinetic profiles and metabolism of primaquine enantiomers by human hepatocytes” (Malaria Journal, 2016).
Where two headings read alike, the source gives them in different places.

Tests used:
[1] = Control incubation in cell-free hepatocyte media (non-enzymatic products); assay type: in vitro ADME
Procedure: (§1) PQ, racemic and enantiomers, prepared as a 1:1 mixture of 12-C and 13-C-labelled compounds, were separately incubated at a final concentration of 20 µM in the cell-containing plating media using the 48-well plate at 37 °C under a humidified atmosphere of 95 % air and 5 % CO2 in an Eppendorf incubator (Hauppauge, NY, USA) attached with a shaker set at 75 rpm. A separate control incubation of PQ and the two enantiomers in the cell-free hepatocyte media was performed to detect any non-enzymatically generated product. Metabolic reactions were halted by the addition of two volumes of ice-cold methanol containing 0.5 µg/mL 6-d3-methoxyprimaquine as an internal standard at predetermined time intervals. This mixture was vortexed and kept at −20 °C for at least 4 h before further analysis. Parallel incubation of substrate-free hepatocytes was performed. At each time point, aliquots were taken for cell viability measurement.

[2] = tested on: primary human hepatocytes; assay type: in vitro ADME; conditions: for enantiomer from which the metabolite is generated: 20 µM (+)-, (−)- and (±)-PQ; for amount detected: peak areas too minute to profile
Procedure: A separate control incubation of PQ and the two enantiomers in the cell-free hepatocyte media was performed to detect any non-enzymatically generated product. Metabolic reactions were halted by the addition of two volumes of ice-cold methanol containing 0.5 µg/mL 6-d3-methoxyprimaquine as an internal standard at predetermined time intervals. This mixture was vortexed and kept at −20 °C for at least 4 h before further analysis. Parallel incubation of substrate-free hepatocytes was performed. At each time point, aliquots were taken for cell viability measurement.
(§2) In preparation for HPLC–MS analysis, samples were centrifuged (10,000g, 10 min) and clear supernatants were dried using a Speedvac. The dried samples were re-suspended in 150 µL methanol, centrifuged and clear supernatants were transferred to HPLC sample vials for analysis.
(§3) The analytical method for simultaneous analysis of primaquine and its metabolites using the Ultra-High Performance Liquid Chromatography-Mass Spectrometry (UHPLC-QToF-MS), as earlier developed and reported was employed in this study. […] Details of the chromatography set-up are published.
Metabolites in the accurate mass data were found using the Metabolynx® software. The data were searched using predicted metabolite mass, mass defects, isotope, and fragmentation patterns. Each sample was subjected to data acquisition in full scan and data-dependent positive MS/MS, targeted MS/MS (ESI positive ionization mode) and high-resolution MS (HRMS) modes using the Waters ACQUITY™ XEVO QTOF Mass Spectrometer (Waters Corporation, Manchester, UK) connected to the UHPLC system via an electrospray ionization (ESI) interface. Metabolites were distinguished from artifacts and unrelated products by the presence of twin peaks with a mass difference of six, arising from the six labels in the 1:1 mixture of 12-C and 13-C-labelled PQ. The Identification of each metabolite was assisted by its HRMS data, which were used to calculate their elemental compositions. The full scan mass data were screened and filtered using Waters MetaboLynx XS software. The qualitative metabolite identification was performed using this software package.

malaria = tested on: malaria; design: method as in PMID 24913163; conditions: suppressive and prophylactic assays, mice ref 8; cited from earlier work
[3] = tested on: primary human hepatocytes; assay: Substrate depletion / intrinsic clearance of PQ and its enantiomers in cryopreserved human hepatocytes; conditions: for λ elimination rate constant / t½ (initial half-life) / substrate depleted: 20 µM; for λ elimination rate constant / substrate depleted: human hepatocytes 1 million cells/mL; for λ elimination rate constant: log-linear regression 0–60 min; for substrate depleted: by 2 h; for CLh,b (% hepatic blood flow): human Qh 20.7 mL/min/kg
Description: (§4) Pooled mixed-gender cryopreserved metabolism-qualified (CYP1A2, 2B6, 2C8, 2C9, 2C19, 2D6, 3A4, UGT2B7, UDP-glucuronosyltransferase) primary human hepatocytes (catalog number 454504) sourced from free donors (who were free of HIV, HBV, HCV and other liver-related diseases) were purchased from Corning Life Sciences (Woburn MA, USA) and stored in liquid nitrogen until use.
(§5) The cryopreserved hepatocytes were thawed and the cells were suspended in recovery medium (Corning Life Sciences). According to the supplier’s instructions, the suspended cells were centrifuged (300g, 5 min), the recovery medium discarded and the cells were re-suspended in the plating medium. Viability of the suspended hepatocytes was computationally determined based on cell counts using a Bio-Rad automated cell counter (Hercules, CA, USA). The cell density was adjusted to approximately 1X10^6 viable cells/mL in the plating media.
as §1, §2, §3
(§6) Initial half-life (t^1/2) and elimination rate constants (λ = ln2/t^1/2) of PQ in hepatocyte incubates were calculated by log-linear regression of PQ concentrations profiled against time using data from the sampling points of the 20 µM PQ incubates. The intrinsic clearance in vitro (CLint in vitro) was calculated from λ and the cell density in the respective incubation (number of viable hepatocytes per mL at time zero) and scaled up to the intrinsic clearance in vivo (CLint in vivo) using the human liver mass (25.7 g/kg body mass) and the hepatocellularity (number of hepatocytes per gram of liver = 99 millions cells/g liver): CLint in vitro = λ/cell density. CLint in vivo = CLint in vitro × liver mass × heptocellularity. From CLint in vivo and the hepatic blood flow [Q (20.7 mL/min)/kg body mass], the hepatic metabolic blood clearance (CLh,b) was predicted using the well-stirred model: CLh,b = (CLint in vivo × Q)/(CLint in vivo + Q).
(§7) Since this estimation was for comparisons between enantiomers only, no corrections were made for the free fractions in vitro or in vivo—i.e. they were assumed to be identical.

[4] = design: method as in PMID 24913163, PMID 25267666; conditions: beagle dogs and mouse models ref 8, 9; cited from earlier work
recombinant human CYP2D6 = tested on: recombinant human CYP2D6; design: method as in PMID 25518709; conditions: cited from earlier work; for depletion of PQ enantiomers: 2 h incubation with recombinant human CYP2D6 ref 12
[5] = design: method as in PMID 24913163, PMID 25267666; conditions: beagle dogs, humanized mouse model and monkeys ref 8, 9; cited from earlier work
Pneumocystis carinii = tested on: Pneumocystis carinii; design: method as in PMID 24913163; conditions: mice ref 8; cited from earlier work
[6] = design: method as in PMID 25637634; conditions: cited from earlier work
[7] = design: method as in PMID 25267666, PMID 25637634, PMID 23378100; conditions: after racemic PQ in mice, monkeys and humans ref 9, 15, 16; cited from earlier work
[8] = tested on: primary human hepatocytes; assay: Hepatocyte viability time course by cell counts in presence and absence of PQ; assay type: cell-based
Procedure: Parallel incubation of substrate-free hepatocytes was performed.

[9] = Substrate depletion / intrinsic clearance of PQ and its enantiomers in cryopreserved human hepatocytes; conditions: both, human; for half-life at 20 µM: hepatocytes, t½ (initial half-life), human hepatocytes
Description: as §4, §5, §1, §2, §3, §6, §7

[10] = design: method as in PMID 25645856; conditions: mice, therapeutic doses ref 22; cited from earlier work
[11] = design: method as in PMID 24913163, PMID 25267666; conditions: monkeys, higher than therapeutic doses ref 8, 9; cited from earlier work
[12] = human hepatocytes, computed from λ
[13] = human hepatocytes, computed from λ (ln2/λ)

Structure (SMILES): COc1cc(NC(C)CCCNC2OC(CO)C(O)C(O)C2O)c2ncccc2c1 (stereo not drawn) [glycosylated conjugate of PQ]
- formation in cell-free media [1]: formed non-enzymatically
- enantiomer from which the metabolite is generated [2]: preferentially generated by (+)-PQ
- enantiomer from which the metabolite is generated ([2]; listed as PQ conjugate formed by apparent N-glucosylation): preferentially formed with (+)-PQ
- enantiomer from which the metabolite is generated ([2]; listed as glycosylated PQ): preferentially generated from (+)-PQ
- time of peak formation ([2]; biphasic increase): ≤ 30 min

Structure (SMILES): COc1cc(N[C@@H](C)CCCN)c2ncccc2c1 [(+)-PQ, (+)-(S)-primaquine]
- anti-malarial activity compared with (−)-PQ (malaria): more active than (−)-PQ
- λ elimination rate constant [3]: 0.19 h⁻¹
- t½ (initial half-life) [3, 12]: 3.62 h
- t½ (initial half-life) [3, 13]: 3.62 h
- substrate depleted [3]: 16%
- rate of hepatic clearance of (+)-PQ relative to that of (−)-PQ ([3]; extrapolated in vivo human hepatic blood clearance, well-stirred liver model): 45%
- CLh,b (% hepatic blood flow) [3]: 24 % hepatic blood flow
- initial half-life compared with (−)-PQ ([3]; human hepatocytes): more than three times longer
- acute toxicity [4]: higher acute toxicity than (−)-PQ
- depletion of PQ enantiomers (recombinant human CYP2D6): 50%
- rate of metabolism compared to (−)-PQ (recombinant human CYP2D6; in vitro with recombinant human CYP2D6 ref 12): significantly higher
- methaemoglobinemia [5]: higher methaemoglobinemia than (−)-PQ
- Pneumocystis carinii pneumonia efficacy compared with (−)-PQ (Pneumocystis carinii): more active than (−)-PQ

Structure (SMILES): COc1cc(NC(C)CCC(=O)OC2OC(C(=O)O)C(O)C(O)C2O)c2ncccc2c1 [CPQ glucuronide, Carboxyprimaquine-β-D-glucuronide]
- enantiomer from which the metabolite is generated [2]: preferentially generated from the (−)-PQ

Structure (SMILES): COc1cc(N2C(=O)CCC2C)c2ncccc2c1 (stereo not drawn)
- enantiomer from which the metabolite is generated [2]: preferentially generated from the (−)-PQ

Structure (SMILES): COc1cc(NC(C)CCCNC(=O)OC2OC(C(=O)O)C(O)C(O)C2O)c2ncccc2c1 [N-carbamoyl glucuronide of PQ, (S)-primaquine-N-carbamoyl-β-D-glucuronide]
- enantiomer from which the metabolite is generated [2]: exclusively formed from (+)-PQ
- enantiomer from which the metabolite is generated ([2]; listed as carbamoyl glucuronide of PQ): exclusively generated from (+)-PQ

Structure (SMILES): COc1cc(NC(C)CCCOC2OC(C(=O)O)C(O)C(O)C2O)c2ncccc2c1 [glucuronide of PQ alcohol, Primaquine alcohol-O-β-D-glucuronide]
- enantiomer from which the metabolite is generated [2]: preferentially generated from the (−)-PQ

Structure (SMILES): COc1cc(NC(C)CCCN)c2nc(O)ccc2c1 (stereo not drawn) [2-hydroxyprimaquine]
- enantiomer from which the metabolite is generated [2]: exclusively generated from the (+)-PQ
- amount detected [2]: trace amounts

Structure (SMILES): COc1cc(NC(C)CCCN)c2nccc(O)c2c1 (stereo not drawn) [4-hydroxyprimaquine]
- enantiomer from which the metabolite is generated [2]: exclusively generated from the (+)-PQ
- amount detected [2]: trace amounts

Structure (SMILES): COc1cc(NC(C)CCC(=O)O)c2ncccc2c1 (stereo not drawn) [CPQ, carboxyprimaquine]
- CPQ peak plasma concentration from (−)-PQ relative to from (+)-PQ ([6]; human, after racemic primaquine ref 15): 15 times
- enantiomeric form in plasma [7]: predominantly the (−)-form
- enantiomer from which the metabolite is generated [2]: preferentially generated from the (−)-PQ
- portion of metabolite generated within 30 min ([2]; 2 h incubation): 75%

Structure (SMILES): COc1cc(NC(C)CCCN)c2ncccc2c1 (racemic) [(±)-PQ, primaquine]
- direct hepatocellular toxicity (viable cell counts vs drug-free incubation) ([8]; 20 µM, up to 2 h): absence of PQ-induced direct hepatocellular toxicity
- hepatocyte viability ([8]; at the 2 h termination time, drug-free and PQ-containing incubates similar): 88 % of the starting value
- Km [9]: 37 µM
- k el at 20 µM [9]: 9.44e-05 s⁻¹
- half-life at 20 µM ([9]; computed from λ): 2.03 h
- half-life at 20 µM ([9]; computed from λ (ln2/λ)): 2.03 h
- substrate depleted [3]: 30%
- CLh,b (% hepatic blood flow) [3]: 36 % hepatic blood flow
- expected peak plasma concentrations ([6]; humans ref 15): < 2 µM
- liver concentration relative to plasma [10]: about 20 times

Structure (SMILES): COc1cc(NC(C)CCCO)c2ncccc2c1 (stereo not drawn) [PQ terminal alcohol, primaquine alcohol]
- enantiomer from which the metabolite is generated [2]: preferentially generated from the (−)-PQ

Structure (SMILES): COc1cc(NC(C)CCCN)c2ncccc2c1 (single isomer, unassigned; (-)) [(−)-PQ, (−)-primaquine]
- liver damage [11]: reversible liver damage
- λ elimination rate constant [3]: 0.64 h⁻¹
- t½ (initial half-life) [3, 12]: 1.08 h
- t½ (initial half-life) [3, 13]: 1.09 h
- substrate depleted [3]: 42%
- CLh,b (% hepatic blood flow) [3]: 51 % hepatic blood flow
- in vitro clearance compared with (+)-PQ ([3]; human hepatocytes): three times faster
- depletion of PQ enantiomers (recombinant human CYP2D6): 30%

Structure (SMILES): COc1cc([N+]2=CCCC2C)c2ncccc2c1 (stereo not drawn)
- enantiomer from which the metabolite is generated [2]: preferentially generated from the (−)-PQ
